From patent publication US12590118B2, “Salt and crystal form of steroid derivative regulator” (Shanghai Hansoh Biomedical Co., Ltd., priority 2019, dated 2026)
pIC50: −log10 of the molar value.

Target: GABA-A receptor
Test: 35S-TBPS binding assay (GABAA receptor binding ability assay)
Design: species or system Sprague-Dawley rat
Settings: rat cerebral cortex cell membrane, 5 μM GABA, 2 nM 35S-TBPS; read-out: IC50 on inhibiting the TBPS binding activity, 35S-TBPS bindng assay
Method in brief: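 Male Sprague-Dawley rat cerebral cortex membranes in PBS, preincubated with compound (1% DMSO, 8-point 3-fold series) 5 min at 25° C, then GABA 5 μM final 5 min, then 2 nM 35S-TBPS for 20 h at 4° C. Bound radioactivity filtered on PEI-treated GF/C and counted. % inhibition relative to DMSO and 10 μM P026-2 controls; IC50 from 4-parameter fit.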

Row | Structure (SMILES) | pIC50
1 | C[C@@]1(O)CC[C@H]2[C@H](CC[C@@H]3[C@@H]2CC[C@@]2(C)[C@H]3[C@@H]3C[C@@H]3[C@@H]2C(=O)Cn2ccc(C#N)n2)C1 [Example 2, 1-(2-((2R,4aS,4bR,6aS,7S,7aS,8aR,8bR,8cR,10aR)-2-Hydroxy-2,6a-dimethyloctadecahydrocyclopropa[4,5]cyclopenta[1,2-a]phenanthren-7-yl)-2-oxoethyl)-1H-pyrazole-3-carbonitrile] | 7.83
2 | C[C@@H]1C[C@H](C(=O)Cn2ccc(C#N)n2)[C@@]2(C)CC[C@H]3[C@@H](CC[C@@H]4C[C@](C)(O)CC[C@@H]43)[C@H]12 [Example 40, 1-(2-((3R,5R,8R,9R,10S,13S,14S,15R,17S)-3-Hydroxy-3,13,15-trimethylhexadecahydro-1H-cyclopenta[a]phenanthren-17-yl)-2-oxoethyl)-1H-pyrazole-3-carbonitrile] | 8.09
